Experimental data: the supplement of paper PMC6470124

Legend:
[1] = absolute recovery over vacuum-assisted evaporative concentration; higher = better recovery; settings: enrichment method: VEC
Procedure, shortened: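 Water samples (influent 6 mL, effluent 15 mL, surface and nanopure water 60 mL) were spiked with standards before concentration, after concentration or not at all, at 200 ng/L (nanopure/surface) or 1000 ng/L (wastewater), with class- and compound-specific adjustments. They were evaporated at 55 °C and 20 mbar to about 0.3 mL, brought to 0.4 mL and centrifuged. Internal standards were added afterwards and samples were analysed by LC-HRMS/MS. Absolute recovery was (response ratio pre − unspiked)/(post − unspiked) × 100, using averages of ≥ 2 replicates.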

[2] = absolute recovery over mixed-bed multilayer solid-phase extraction; higher = better recovery; settings: enrichment method: SPE
Procedure, shortened: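 Wastewater (100–250 mL, pH 6.5, glass-fibre filtered) and unfiltered nanopure water (1000 mL) were extracted on a three-layer mixed-bed cartridge, with standards spiked before extraction, after it, or not at all at 1000 ng/L and 200 ng/L respectively, apart from some classes. Internal standards were then added for liquid chromatography with high-resolution tandem mass spectrometry in both ionisation modes. Absolute recovery compares background-corrected response ratios of pre- and post-spiked samples across at least two replicates.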

[3] = LC retention time (Atlantis T3, 5-95% MeOH gradient, 0.1% formic acid); higher = more retained / less polar
Procedure, shortened: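 Retention times were recorded for reference standards on a polar reversed-phase C18 column. The standards were of purity ≥ 95%, and the Atlantis T3 column (3 × 150 mm, 3 μm) was run at 0.3 mL/min with a gradient from 5 to 95% methanol over 17.5 min, both water and methanol containing 0.1% formic acid. Detection used high-resolution tandem mass spectrometry on a QExactive Plus, with positive and negative electrospray in separate runs, and peaks were integrated in TraceFinder (5 ppm tolerance, at least three points per peak) before being checked by hand.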

Row | Structure (SMILES) | absolute recovery ([1]; wastewater effluent) [%] | absolute recovery ([1]; wastewater influent) [%] | absolute recovery ([2]; nanopure water) [%] | absolute recovery ([2]; surface water) [%] | absolute recovery ([2]; wastewater effluent) [%] | absolute recovery ([2]; wastewater influent) [%] | LC retention time [3] [min]
1 | CCC[NH2+]C(C)C(=O)Nc1ccccc1C (stereo unspecified) [Prilocain] | 109 | 106 | 82.5 | 83 | 81.8 | 87.2 | 11.7
2 | CCC1(c2ccccc2)C(=O)NCNC1=O [Primidon] | 103 | 98.5 | 94.9 | 92.4 | 88.6 | 92.9 | 14.5
3 | CCCN(CCOc1c(Cl)cc(Cl)cc1Cl)C(=O)n1ccnc1 [Prochloraz] | 103 | 101 | 99.3 | 96.4 | 93.9 | 92.3 | 20.6
4 | CC(=O)C1CCC2C3CCC4=CC(=O)CCC4(C)C3CCC12C (stereo unspecified) [Progesteron] | 93.9 | 6.6 | 92.4 | 97.3 | 94.7 | 95.7 | 21.4
5 | COc1nc(NC(C)C)nc(NC(C)C)n1 [Prometon F] | 104 | 106 | 88.1 | 95.5 | 91.6 | 92.7 | 15.8
6 | CSc1nc(NC(C)C)nc(NC(C)C)n1 [Prometryn G] | 94.8 | 94.8 | 97.7 | 92.8 | 92.4 | 94.1 | 18.2
7 | CC(C)N(C(=O)CS(=O)(=O)[O-])c1ccccc1 [Propachlor-ESA] | 108 | 96.6 | 93.1 | 94.4 | 91.1 | 96.4 | 19.4
8 | CC(C)N(C(=O)C(=O)[O-])c1ccccc1 [Propachlor-OXA] | 105 | 100 | 96 | 73.3 | 93.5 | 102 | 17.8
9 | CC(C)N(C(=O)CCl)c1ccccc1 [Propachlor] | 83.8 | 76.9 | 84.3 | 87 | 81.1 | 93.3 | 18.4
10 | CCCOC(=O)NCCC[NH+](C)C [Propamocarb] | 105 | 105 | 83 | 83.9 | 84.1 | 86.5 | 8.99
11 | CC(C)=NOCCOC(=O)C(C)Oc1ccc(Oc2cnc3cc(Cl)ccc3n2)cc1 (stereo unspecified) [Propaquizafop] | 68.4 | 13.2 | 79.1 | 91.4 | 93.7 | 80.9 | 22.4
12 | CC(C)Nc1nc(O)nc(NC(C)C)n1 [Propazine-2-hydroxy I] | 104 | 113 | 103 | 96.9 | 94.2 | 88 | 12.7
13 | CCCC1COC(Cn2cncn2)(c2ccc(Cl)cc2Cl)O1 (stereo unspecified) [Propiconazol] | 104 | 101 | 97.2 | 94.8 | 91.8 | – | 21.1
14 | CCC(=O)OC(Cc1ccccc1)(c1ccccc1)C(C)C[NH+](C)C (stereo unspecified) [Propoxyphene] | 108 | 110 | 85.3 | 94.6 | 91.5 | 72.4 | 15.6
15 | CC(C)[NH2+]CC(O)COc1cccc2ccccc12 (stereo unspecified) [Propranolol] | 105 | 100 | 100 | 96.8 | 93.7 | 86.3 | 14.4
16 | C#CC(C)(C)NC(=O)c1cc(Cl)cc(Cl)c1 [Propyzamide] | 82 | 88.4 | 97.1 | 88.9 | 87.8 | 101 | 20
17 | CCCOc1nc2ccc(I)cc2c(=O)n1CCC [Proquinazid] | 84.4 | 62.4 | 76.1 | 73.6 | 78 | 65 | 24.6
18 | COc1nc(C)nc(NC(=O)[N-]S(=O)(=O)c2ccccc2CCC(F)(F)F)n1 [Prosulfuron] | 108 | 102 | 106 | 113 | 104 | 102 | 19.3
19 | OC(Cc1ccccc1Cl)(Cn1cncn1)C1(Cl)CC1 (stereo unspecified) [Prothioconazole-desethio] | 141 | 128 | 109 | 86.3 | 104 | 104 | 20.6
20 | OC(Cc1ccccc1Cl)(Cn1[nH]cnc1=S)C1(Cl)CC1 (stereo unspecified) [Prothioconazole] | 96.6 | 39.8 | – | 94.5 | 41.8 | 14.7 | 21.2
21 | CC1=NNC(=O)N(N=Cc2cccnc2)C1 [Pymetrozin] | 107 | 110 | 118 | 112 | 106 | 97 | 8.65
22 | COC(=O)N(OC)c1ccccc1COc1ccn(-c2ccc(Cl)cc2)n1 [Pyraclostrobin] | 87.5 | 90.7 | 101 | 98 | 91.5 | 99.3 | 21.1

Row | Structure (SMILES) | absolute recovery ([1]; wastewater effluent) [%] | absolute recovery ([1]; wastewater influent) [%] | absolute recovery ([2]; nanopure water) [%] | absolute recovery ([2]; surface water) [%] | absolute recovery ([2]; wastewater effluent) [%] | absolute recovery ([2]; wastewater influent) [%] | LC retention time [3] [min]
23 | COc1ccc(CN(CC[NH+](C)C)c2ccccn2)cc1 [Pyrilamine] | 94 | 99.9 | 83.7 | 87 | 87.3 | 88.2 | 18.4
24 | Cc1cc(C)nc(Nc2ccccc2)n1 [Pyrimethanil] | 88.8 | 86.4 | 89.2 | 91.1 | 91.4 | 90.3 | 18.3
25 | Cc1cc(O)nc(C(C)C)n1 [Pyrimidinol] | 108 | 108 | 76.8 | 81.4 | 85.3 | 96.4 | 11.8
26 | COc1cc(OC)n2nc([N-]S(=O)(=O)c3c(C(F)(F)F)ccnc3OC)nc2n1 [Pyroxsulam] | 103 | 103 | 100 | 97.7 | 96.3 | 84.9 | 16.7
27 | NC1=C(Cl)C(=O)c2ccccc2C1=O [Quinoclamine] | 97 | 106 | 93.9 | 96.8 | 92.6 | 88 | 16.8
28 | Fc1ccc(Oc2ccnc3cc(Cl)cc(Cl)c23)cc1 [Quinoxyfen] | 69.8 | – | 63.7 | 76.4 | 78.1 | 53.1 | 22.9
29 | CNC(=C[N+](=O)[O-])NCCSCc1ccc(C[N+](C)(C)[O-])o1 [Ranitidin-N-oxid] | 103 | 92.2 | 50.9 | 69.4 | 63.7 | 73.7 | 8.99
30 | CNC(=C[N+](=O)[O-])NCCS(=O)Cc1ccc(C[NH+](C)C)o1 (stereo unspecified) [Ranitidin-S-oxid] | 83.5 | 142 | 72.3 | 74.2 | 67.2 | 81.4 | 6.08
31 | CCOc1cc(CC(=O)NC(CC(C)C)c2ccccc2N2CCCCC2)ccc1C(=O)[O-] (stereo unspecified) [Repaglinide] | 120 | 95.3 | 95.4 | 98.7 | 102 | 94.8 | 19.3
32 | COC(=O)C1C2CC3c4[nH]c5cc(OC)ccc5c4CC[NH+]3CC2CC(OC(=O)c2cc(OC)c(OC)c(OC)c2)C1OC (stereo unspecified) [Reserpin] | 21.6 | 64.3 | 64.2 | 81.9 | 80.1 | 64.2 | 15.9
33 | NC(=O)c1ncn(C2OC(CO)C(O)C2O)n1 (stereo unspecified) [Ribavirin] | 87 | 67.6 | 33.5 | 30.5 | 33.2 | 37 | 4.79
34 | CC([NH3+])C12CC3CC(CC(C3)C1)C2 (stereo unspecified) [Rimantadin] | 105 | 112 | 71.9 | 76.1 | 72.9 | 71.4 | 14.6
35 | CCS(=O)(=O)c1cccnc1S(=O)(=O)[N-]C(=O)Nc1nc(OC)cc(OC)n1 [Rimsulfuron] | 93.8 | 85 | 127 | 124 | 95 | 95.2 | 17.6
36 | Cc1nc2n(c(=O)c1CC[NH+]1CCC(c3noc4cc(F)ccc34)CC1)CCCC2 [Risperidone] | 98.7 | 102 | 90.1 | 98.4 | 93.3 | 82 | 13.3
37 | O=C([O-])C(c1ccccc1)C1CCCC[NH2+]1 (stereo unspecified) [Ritalinic-acid] | 110 | 104 | 104 | 77.4 | 88.9 | 79.8 | 12.3
38 | CC(C)c1nc(CN(C)C(=O)NC(C(=O)NC(Cc2ccccc2)CC(O)C(Cc2ccccc2)NC(=O)OCc2cncs2)C(C)C)cs1 (stereo unspecified) [Ritonavir] | 106 | 99.5 | 85.2 | 92.4 | 86.9 | 87.6 | 21
39 | CCN(C)C(=O)Oc1cccc(C(C)[NH+](C)C)c1 (stereo unspecified) [Rivastigmin] | 102 | 105 | 90.4 | 94.7 | 90.6 | 98.8 | 12.2
40 | CC(C)c1nc(N(C)S(C)(=O)=O)nc(-c2ccc(F)cc2)c1C=CC(O)CC(O)CC(=O)[O-] (stereo unspecified) [Rosuvastatin] | 108 | 91.4 | 96.2 | 92.9 | 90 | 90.1 | 18.3
41 | CCC1OC(=O)C(C)C(OC2CC(C)(OC)C(O)C(C)O2)C(C)C(OC2OC(C)CC([NH+](C)C)C2O)C(C)(O)CC(C)C(=NOCOCCOC)C(C)C(O)C1(C)O (stereo unspecified) [Roxithromycin] | 90.2 | 90.4 | 80.1 | 95.7 | 87.5 | 98.8 | 17
42 | NC(=O)c1cn(Cc2c(F)cccc2F)nn1 [Rufinamid] | 98.5 | 104 | 122 | 101 | 100 | 92.3 | 14
43 | O=C1[N-]S(=O)(=O)c2ccccc21 [Saccharin] | 102 | – | 101 | 105 | 95.6 | – | 11.6
